Converted amounts (≈) assume the structure as drawn. Blank lines part the entries; values can stand above or below the compound they belong to.
Tests used:
[1] = Kinetic solubility of PP-001 salts in FaSSIF (HPLC); assay type: physicochemical; conditions: 4 mL FaSSIF, 25° C., target 2 mg/mL
Protocol: Approximately 8 mg (calculated as freebase) of each salt was weighed out into each glass vial and then 4 ml of FaSSIF was added (target concentration was 2 mg/mL). The sample was kept stirring on a magnetic stirrer at a speed of I 00 RPM under 25° C. Then at the time points of initial, 0.5 hr, 1 hr, 2 hrs and 24 hrs, 0.5 mL of sample solution was transferred into 1.5 mL centrifugation tube and centrifuged at 12,000 RPM for 10 min. The supernatant was diluted by 50% ACN suitable and analyzed by HPLC.
An HPLC method of testing solubility was performed as follows in Table A: […]

[2] = Thermodynamic (equilibrium) solubility of PP-001 salts in FaSSIF; assay type: physicochemical; conditions: 3 mL FaSSIF, 37° C.
Protocol: As the solid was completely dissolved, add more sample to keep it saturated. […] Then at the time point 2 hrs, 0.5 mL of sample solution was transferred into 1.5 mL centrifugation tube and centrifuged at 12,000 RPM for 10 min. The supernatant was diluted by 50% ACN suitable and analyzed by HPLC. The pH was tested after 24 hours.

in vivo [3] = conditions: rat, in vivo, po
Protocol: (§1) Suspensions were stirred continuously prior to dose.
A total of 27 male SD rats were used (n=3). 27 male SD rats assigned to the study were divided into 9 groups and a single type of formulated PP-001 salt was orally administered to each group of rats at dose level of 4 mg/kg (2 mL/kg dose volume). The diet was provided ad libitum throughout the in-life portion of the study, except for the fasting prior to dosing through 4 hours post dose. Drinking water was available daily ad libitum to all animals.
(§2) Plasma samples were collected via the jugular vein cannulation into EDTA-K3 tubes at 0.25, 0.5, 1, 2, 4, 8, and 24 hours post-dose administration. For analytical batch of single oral administration, plasma concentrations of salts of PP-001 were determined using LC-MS/MS with a lower limit of quantitation of 1 ng/mL.
(§3) The pharmacokinetic parameters of PP-001 salts were determined by non-compartmental analysis using WinNonlin Version 8.0 (Pharsight, Mountain View, CA). The area under the curve from the time of dosing to the last measurable concentration, AUC0-t, was calculated by the linear trapezoidal rule. The area under the concentration-time curve extrapolated to infinity, AUCinf, was calculated using a regression of the natural logarithm of the concentration values versus sampling time of the terminal slope (Lambda Z, k). This value is also used to calculate half-life (T1/2) as follows:
(§4) The bioavailability was calculated as follows:
(§5) [formula] • wherein PO is an oral administration and IV is an intravenous injection.

in vivo [4] = conditions: dog
Protocol: as §1
A total of 6 male beagle dogs were used (n=3). 6 male dogs assigned to the study were divided into 2 periods with 6 dogs per period and two dosing cycles separated by a 7-day washout period. The diet was provided ad libitum throughout the in-life portion of the study, except for the fasting prior to dosing through 4 hours post dose. Drinking water was available daily ad libitum to all animals. Formulated PP-001 salts were administered to male beagle dogs by oral administration at 4 mg/kg with dosed volume at 2 mL/kg.
as §2, with “of 10” for “of 1”
as §3, §4, §5

[5] = Solubility of PP-001 free acid in supernatant of 10 mg/mL formulation in FaSSIF; assay type: physicochemical; conditions: supernatant of 10 mg/mL formulation at 25° C. in FaSSIF after 120 min

Appearance after stirring for 24 hours [1]: clear solution | Solubility at different time points, 0.5 h ([1]; 0.5 h): 1600 µg/mL | Solubility at different time points, 1 h ([1]; 1 h): 1730 µg/mL | Solubility at different time points, 2 h ([1]; 2 h): 1790 µg/mL | Solubility at different time points, 24 h ([1]; 24 h): 2010 µg/mL | Solubility at different time points, Initial ([1]; initial): 410 µg/mL | Final pH ([2]; pH tested after 24 hours): 6.49 | Appearance after stirring for 24 hours ([2]; saturated): Suspension | Thermodynamic solubility ([2]; saturated (target 10 mg/mL), time point 2 hrs, pH 6.4 to 6.5): 1850 µg/mL | Increase in oral BA vs free acid in rats (in vivo [3]): 2.4 | AUC0-∞ (in vivo [3]; 4 mg/kg): 32873 ng·h/mL | AUCExtr (in vivo [3]; 4 mg/kg): 0.743% | AUCinf/D (in vivo [3]; 4 mg/kg): 8218 kg·ng·h/mL/mg | AUClast (in vivo [3]; 4 mg/kg): 32626 ng·h/mL | Cmax (in vivo [3]; 4 mg/kg): 6147 ng/mL | F, bioavailability (BA) in rats (in vivo [3]; 4 mg/kg): 18.8% | MRT0-∞ (in vivo [3]; 4 mg/kg): 4.76 h | Tmax (in vivo [3]; 4 mg/kg): 2.33 h | T1/2 (in vivo [3]; 4 mg/kg, pH 6.8): 3.34 h | Increase in oral BA vs free acid in dogs (in vivo [4]): 2.6 | AUC0-∞ (in vivo [4]; po, 4 mg/kg): 116660 ng·h/mL | AUCExtr (in vivo [4]; po, 4 mg/kg): 2.16% | AUCinf/D (in vivo [4]; po, 4 mg/kg): 29165 kg·ng·h/mL/mg | AUClast (in vivo [4]; po, 4 mg/kg): 114152 ng·h/mL | Cmax (in vivo [4]; po, 4 mg/kg): 16867 ng/mL | F, bioavailability (BA) in dogs (in vivo [4]; po, 4 mg/kg): 59.6% | MRT0-∞ (in vivo [4]; po, 4 mg/kg): 5.28 h | T1/2 (in vivo [4]; po, 4 mg/kg): 4.24 h | Tmax (in vivo [4]; po, 4 mg/kg): 3.00 h
Compound: Sodium

Increase in oral BA vs free acid in rats (in vivo [3]; male, SD): 1 | bioavailability (in vivo [3]; male, SD, 4 mg/kg): 7.8% | Increase in oral BA vs free acid in dogs (in vivo [4]; male, beagle): 1 | bioavailability (in vivo [4]; male, beagle, po, 4 mg/kg): 23% | solubility at 120 min [5]: 1200 µg/mL (≈ 2500 µM)
Compound: O=C(Nc1c(F)c(F)c(-c2cccc(OC(F)(F)F)c2)c(F)c1F)c1ccsc1C(=O)O [PP-001 free acid, 3-(2,3,5,6-tetrafluoro-3′-trifluoromethoxy-biphenyl-4-ylcarbamoyl)-thiophene-2-carboxylic acid]

From patent US20260209200A1, “SALTS OF A DIHYDROOROTATE DEHYDROGENASE (DHOD) INHIBITOR” (priority 2022, published 2026)
